The record followed here is article PMC12863032, “Design, synthesis, and anticancer activity of novel isocryptolepine ‘aza’ type acyl thiourea derivatives via combined experimental and computational approach” (Bioscience Reports, 2026).

Holding throughout (format): biochemical
For experiment [1], the target named is calf intestinal alkaline phosphatase (CIAP) (Bos taurus, UniProt P19111). Nature of the experiment: Alkaline phosphatase inhibition assay. The following applies: p-NPP substrate, Mean ± SEM. As for the experimental part: Spectrophotometric analysis, as previously described in publications, can be used to evaluate the activity of calf intestinal alkaline phosphatase (CIAP). The reaction mixture, including 10 µl of the reagent and 50 mM Tris-HCl buffer (5 mM MgCl2, 0.1 mM ZnCl2, pH 9.5), is preincubated for 10 min following the addition of 5 µl of CIAP (0.025 U/ml). The test mixture was then incubated at 37°C for another half hour after 10 µl of a substrate (0.5 mM p-NPP, para nitrophenyl phosphate disodium salt) was added to initiate the reaction. The alteration in absorbance of released p-nitrophenolate was measured using a 96-well microplate reader (Thermo Scientific Multiskan GO, U.S.A.) at 405 nm. All tests were repeated three times. […] The inhibition activity was calculated according to the following equation:
Inhibition(%)=(Blank−Sample)/Blank×100
IC50 values were designed using 6–8 serial dilutions, and the data were analyzed by nonlinear regression using GraphPad Prism 5 (GraphPad, San Diego, CA, U.S.A.).

The next experiment concerns the target carbonic anhydrase (Bos taurus, UniProt P00921). Put plainly: Carbonic anhydrase inhibition assay (p-nitrophenyl acetate hydrolysis). The following applies: bovine enzyme, p-nitrophenyl acetate substrate, Mean ± SEM. The method, then: The inhibition of carbonic anhydrase was assessed as previously outlined, with certain modifications [[60–62]]. The method employed involves the hydrolysis of p-nitrophenyl acetate by carbonic anhydrase, resulting in the formation of yellow p-nitrophenol, which was subsequently analyzed through spectrophotometry. The reaction mixture included 20 µl of inhibitor, 120 µl of 50 mM Tris-Sulfate buffer (pH 7.6 with 0.1 mM ZnCl2), and 20 µl of bovine enzyme (50 U) per well. The components were mixed and preincubated at 25°C for 10 min. A 6 mM stock solution of the substrate p-nitrophenyl acetate was prepared with less than 5% acetonitrile in buffer and utilized fresh for each experiment, with 40 µl added per well to attain a concentration of […] per well. The total reaction volume was adjusted to 200 µl. […] Acetazolamide served as the reference standard. Each concentration underwent three separate evaluations. IC50 values were determined through nonlinear regression analysis utilizing GraphPad Prism 5.0 (GraphPad, San Diego, CA, U.S.A.).
Inhibition(%)=(B−S)/B×100
Here, the B and S are the absorbances for the blank and samples.

For experiment [2], the target named is mushroom tyrosinase. Nature of the experiment: Mushroom tyrosinase inhibition assay. To be noted: L-DOPA substrate, Mean ± SEM. The method, then: The inhibition of mushroom tyrosinase (Sigma Chemical, U.S.A.) was performed in accordance with previously documented methodologies [[57–59]]. Each well of a 96-well microplate received 20 µl of mushroom tyrosinase (30 U/ml), 20 µl of the inhibitor solution, and 140 µl of phosphate buffer (20 mM, pH 6.8). After a 10 min preincubation at room temperature, 20 µl of L-DOPA (3,4-dihydroxyphenylalanine, Sigma Chemical, U.S.A.) at a concentration of 0.85 mM was added, and the test plate was incubated for an additional 20 min at 25°C. The absorbance of dopachrome was later quantified at 475 nm using a microplate reader (SpectraMax ABS, U.S.A.). […] Every experiment was performed three times. IC50 values were calculated by nonlinear regression using GraphPad Prism 5.0 (GraphPad, San Diego, CA U.S.A.).
The % Inhibition of tyrosinase was calculated as following:
Tyrosinase % Inhibition= (Blank−Sample)/B×100 = ( Equation 1 ).

Experiment [3] has as its system mushroom tyrosinase. Put plainly: Mushroom tyrosinase inhibition assay.

SMILES strings stand for the structures.

carbonic anhydrase, sequence (P00921 whole entry): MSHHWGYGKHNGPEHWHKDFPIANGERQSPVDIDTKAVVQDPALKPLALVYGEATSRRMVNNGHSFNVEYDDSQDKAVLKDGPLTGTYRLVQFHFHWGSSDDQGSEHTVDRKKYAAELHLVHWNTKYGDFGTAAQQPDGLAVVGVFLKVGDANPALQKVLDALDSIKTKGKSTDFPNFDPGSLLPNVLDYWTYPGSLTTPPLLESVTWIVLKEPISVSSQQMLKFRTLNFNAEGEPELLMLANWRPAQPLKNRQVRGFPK
calf intestinal alkaline phosphatase (CIAP), sequence (P19111 20-533): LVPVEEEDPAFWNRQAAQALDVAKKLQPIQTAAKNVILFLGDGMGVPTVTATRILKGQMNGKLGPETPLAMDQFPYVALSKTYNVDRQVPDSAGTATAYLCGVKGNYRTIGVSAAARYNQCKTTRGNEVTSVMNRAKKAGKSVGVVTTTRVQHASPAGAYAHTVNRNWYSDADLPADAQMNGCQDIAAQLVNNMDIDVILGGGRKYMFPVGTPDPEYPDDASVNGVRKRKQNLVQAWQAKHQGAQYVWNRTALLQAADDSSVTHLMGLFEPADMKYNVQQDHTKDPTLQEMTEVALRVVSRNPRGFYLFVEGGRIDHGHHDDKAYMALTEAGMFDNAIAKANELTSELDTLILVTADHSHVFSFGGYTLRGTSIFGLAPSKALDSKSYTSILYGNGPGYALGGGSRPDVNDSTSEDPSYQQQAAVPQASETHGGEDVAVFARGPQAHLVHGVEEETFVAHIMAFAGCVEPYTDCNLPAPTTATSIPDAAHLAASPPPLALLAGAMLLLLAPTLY

For orientation: IC50 means the midpoint of a concentration-inhibition curve. High values mean weaker potency, low ones greater potency. As for `CCCCCCCC(=O)NC(=S)Nc1ccccc1-c1nc2ccccc2c2nc3ccccc3n12` [Compound 6e, N-((2-(Benzo [4, 5]imidazo[1,2 c]quinazolin-6-yl)phenyl)carbamothioyl)octanamide], the concentration for half-maximal inhibition (IC50) turned out to be 7.77 µM in experiment [1], 1.08 ± 0.42 µM on carbonic anhydrase and 1.85 ± 0.886 µM against mushroom tyrosinase [2].

For `CCCCCCCCCC(=O)NC(=S)Nc1ccccc1-c1nc2ccccc2c2nc3ccccc3n12` [Compound 6g, N -((2-(Benzo[4,5]imidazo[1,2-c]quinazolin-6-yl)phenyl)carbamothioyl)decanamide], the “Type of tyrosinase inhibition (kinetic studies)” value with mushroom tyrosinase [3] was “competitive inhibition”. Besides, the IC50 was 2.81 ± 0.42 µM in experiment [1], 0.708 ± 0.02 µM against carbonic anhydrase and 0.832 ± 0.03 µM against mushroom tyrosinase [2].

For the compound `CCCCCC(=O)NC(=S)Nc1ccccc1-c1nc2ccccc2c2nc3ccccc3n12` [Compound 6c, N ((2-(Benzo [4, 5]imidazo[1,2 c]quinazolin-6-yl)phenyl)carbamothioyl)hexanamide], the IC50 amounted to 20.3 µM in experiment [1], 7.42 ± 0.74 µM at carbonic anhydrase and 2.8 ± 0.85 µM against mushroom tyrosinase [2].

In the case of `CCCC(=O)NC(=S)Nc1ccccc1-c1nc2ccccc2c2nc3ccccc3n12` [Compound 6a, N-((2-(Benzo [4, 5]imidazo[1,2 c]quinazolin-6-yl)phenyl)carbamothioyl)butyramide], the IC50 in experiment [1] is 20.6 µM; on carbonic anhydrase, 10.9 ± 0.99 µM; at mushroom tyrosinase [2], 7.95 ± 0.63 µM.

Regarding `CC(C)(C)C(=O)NC(=S)Nc1ccccc1-c1nc2ccccc2c2nc3ccccc3n12` [Compound 6h, N-((2-(Benzo [4, 5]imidazo[1,2 c]quinazolin-6-yl)phenyl)carbamothioyl)pivalamide], the concentration for half-maximal inhibition (IC50) came to 7.2 ± 0.63 µM in experiment [1], 2.33 ± 0.34 µM against carbonic anhydrase and 1.27 ± 0.17 µM against mushroom tyrosinase [2].

As to `CCCCCCCCC(=O)NC(=S)Nc1ccccc1-c1nc2ccccc2c2nc3ccccc3n12` [Compound 6f, N -((2-(Benzo[4,5]imidazo[1,2-c]quinazolin-6-yl)phenyl)carbamothioyl)nonanamide], the concentration for half-maximal inhibition (IC50) was found to be 7.02 µM in experiment [1], 7.14 ± 0.95 µM against carbonic anhydrase and 2.05 ± 0.97 µM on mushroom tyrosinase [2].

As for `CCCCCCC(=O)NC(=S)Nc1ccccc1-c1nc2ccccc2c2nc3ccccc3n12` [Compound 6d, N-((2-(Benzo [4, 5]imidazo[1,2 c]quinazolin-6-yl)phenyl)carbamothioyl)heptanamide], the IC50 worked out at 16.6 ± 0.98 µM in experiment [1], 3.51 ± 0.63 µM against carbonic anhydrase and 0.921 ± 0.07 µM against mushroom tyrosinase [2].

For the compound `CCCCC(=O)NC(=S)Nc1ccccc1-c1nc2ccccc2c2nc3ccccc3n12` [Compound 6b, N -((2-(Benzo[4,5]imidazo[1,2-c]quinazolin-6-yl)phenyl)carbamothioyl)pentanamide], the concentration for half-maximal inhibition (IC50) came to 10.7 ± 0.96 µM in experiment [1], 2.76 ± 0.56 µM against carbonic anhydrase and 4.88 ± 0.54 µM on mushroom tyrosinase [2].
